# Source: article PMC8052528 (Protein & Cell, 2021)
# Experiments:
# [1] = Phase 1 and Phase 2 clinical trials; ref Satoh et al., 2009; Kelly et al., 2013; cited from earlier work
# SARS-CoV-2 = type: cell-based
Structure (SMILES),tolerability in humans [1],intracellular NP level versus control group (10 μmol/L chloroquine) (SARS-CoV-2)
COCCn1c2c([n+](Cc3cnccn3)c1C)C(=O)c1ccccc1C2=O [YM155],well tolerated,
C[C@H]1COC2=C1C(=O)C(=O)c1c2ccc2c1CCCC2(C)C [cryptotanshinone],,comparable NP levels with the control group
Cc1coc2c1C(=O)C(=O)c1c-2ccc2c(C)cccc12 [tanshinone I],,comparable NP levels with the control group
